Laboratory results taken from patent US20210115397A1, “METHOD FOR PROMOTING DIFFERENTIATION OF PLURIPOTENT STEM CELLS” (TOKYO INSTITUTE OF TECHNOLOGY, priority 2018, published 2021).

Test system: RPChiPS771 hiPSCs
Experiment: Differentiation of RPChiPS771 into definitive endoderm with or without CHIR99021, SOX17+ cells
Assay type: cell-based, human
Settings: protocol B (CHIR99021 added) versus protocol A (without CHIR99021)
Method: Medium 1 (M1): Initiation of differentiation was done by replacing the culture with Medium 1, including DMEM with 4, 500 mg/L glucose supplemented with 3 μM CHIR99021 (Stemgent), 100 ng/mL recombinant human activin-A (Cell Guidance Systems Ltd), and 2% B27 insulin (+) supplement (Life Technologies). On days 1 and 2, the media were replaced with medium 1 without CHIR99021. Cells were fixed in 4% paraformaldehyde (NACALAI TESQUE, INC.) in PBS, permeabilized with 0.1% Triton X-100 (NACALAI TESQUE, INC.), and were then blocked with 20% Blocking One (NACALAI TESQUE, INC., Japan) in PBST (0.1% Tween-20 in PBS). Antibodies were diluted in 20% Blocking One (NACALAI TESQUE, INC., Japan) in PBST (0.1% Tween-20 in PBS). Cells were counterstained with […] (DAPI) (Roche Diagnostics K.K., Switzerland). The following primary antibodies were used: mouse anti-Oct3/4 (Santa Cruz Biotechnology, Inc.), goat anti-Sox17 (R&D Systems, Inc.), goat anti-PDX1 (R&D Systems, Inc.), guinea pig anti-insulin (Dako), rabbit anti-C-peptide (Cell Signaling Technology, Inc.), and mouse anti-Nkx6.1 (Developmental Studies Hybridoma Bank). […] Positive cells versus total cells (DAPI-positive cells) were quantified using ImageXpress Micro cellular imaging system (Molecular Devices, LLC.).

## Cc1c[nH]c(-c2cnc(NCCNc3ccc(C#N)cn3)nc2-c2ccc(Cl)cc2Cl)n1 [CHIR99021, 6-[[2-[[4-(2,4-dichlorophenyl)-5-(4-methyl-1H-imidazole-2-yl)-2-pyrimidinyl]amino]ethyl]amino]nicotinonitrile]
  proportion of SOX17+ cells: a higher proportion of SOX17+ cells overall
